Experimental data reported in article PMC10608451, “Affinity Purification and Molecular Characterization of Angiotensin-Converting Enzyme (ACE)-Inhibitory Peptides from Takifugu flavidus” (Marine Drugs, 2023).
Where two headings read alike, the source gives them in different places. Where a SMILES comes first, the peptide text is derived from it. Where no end group is shown, it is not given here.

How the values were obtained:
ACE [1] = molecular target: T1, ACE (Homo sapiens, UniProt P12821); assay: ACE-inhibitory activity assay of synthetic peptides (HHL substrate, hippuric acid by RP-HPLC); assay type: biochemical; conditions: for inhibition at 1000 µg/mL: 0.75 h, peptide 1 mg/mL; for IC50: Table 2, top 8 peptides
T1 sequence (P12821 30-1306, species assumed): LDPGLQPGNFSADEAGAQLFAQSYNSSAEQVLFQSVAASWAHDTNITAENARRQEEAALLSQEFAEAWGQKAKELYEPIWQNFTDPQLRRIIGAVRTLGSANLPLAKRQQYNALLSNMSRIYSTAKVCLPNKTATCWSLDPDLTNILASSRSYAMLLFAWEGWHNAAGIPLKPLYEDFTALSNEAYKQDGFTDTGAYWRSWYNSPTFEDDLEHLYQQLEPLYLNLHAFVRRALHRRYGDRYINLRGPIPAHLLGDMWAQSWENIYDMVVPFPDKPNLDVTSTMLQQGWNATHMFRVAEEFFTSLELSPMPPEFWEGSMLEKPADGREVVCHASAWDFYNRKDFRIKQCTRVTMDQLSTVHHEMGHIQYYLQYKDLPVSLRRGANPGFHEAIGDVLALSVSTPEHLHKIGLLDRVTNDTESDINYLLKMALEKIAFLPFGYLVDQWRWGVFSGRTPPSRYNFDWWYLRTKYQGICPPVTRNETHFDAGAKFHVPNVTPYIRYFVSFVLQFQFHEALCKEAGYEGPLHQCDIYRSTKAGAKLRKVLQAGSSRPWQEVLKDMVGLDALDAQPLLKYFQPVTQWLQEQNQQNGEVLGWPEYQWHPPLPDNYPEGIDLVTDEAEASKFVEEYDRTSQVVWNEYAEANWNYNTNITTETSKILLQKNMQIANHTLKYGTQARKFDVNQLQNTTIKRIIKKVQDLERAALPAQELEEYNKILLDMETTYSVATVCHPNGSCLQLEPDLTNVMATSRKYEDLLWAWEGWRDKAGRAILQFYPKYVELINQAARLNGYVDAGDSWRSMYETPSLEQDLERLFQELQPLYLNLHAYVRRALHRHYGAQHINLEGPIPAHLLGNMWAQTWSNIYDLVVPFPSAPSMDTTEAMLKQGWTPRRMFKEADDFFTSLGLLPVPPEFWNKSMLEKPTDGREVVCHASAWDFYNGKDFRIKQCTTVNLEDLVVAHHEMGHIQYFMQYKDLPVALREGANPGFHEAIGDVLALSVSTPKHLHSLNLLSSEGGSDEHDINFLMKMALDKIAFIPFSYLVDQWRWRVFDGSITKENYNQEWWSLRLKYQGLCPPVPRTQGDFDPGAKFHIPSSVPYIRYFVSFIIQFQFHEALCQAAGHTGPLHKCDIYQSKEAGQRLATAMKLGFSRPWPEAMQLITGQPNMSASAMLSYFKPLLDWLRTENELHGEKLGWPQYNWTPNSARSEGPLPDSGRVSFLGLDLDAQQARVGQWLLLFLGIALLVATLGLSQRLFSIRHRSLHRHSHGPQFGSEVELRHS
Method: The peptides were prepared by the fmoc solid-phase method (purity ≥ 98% by HPLC) at Genscript Biotech Corporation (Nanjing, China). ACE-inhibitory activity of the synthesized peptides was evaluated according to the method of Ma. et al., with some modifications. In brief, 50 µL of sample was added into 150 µL of 5 mmol·L^−1 hippuryl-l-histidyl-l-leucine (HHL) and incubated for 10 min at 37 °C. Then, the enzymatic reaction was initiated by addition of 50 µL of 50 mU/mL ACE solution and kept at a constant temperature of 37 °C for 45 min. The reaction was then terminated by adding 250 µL of 1 mol·L^−1 HCl. RP-HPLC (Waters, Milford, MA, USA) was used to measure hippuric acid (HA) formation at 220 nm. […] The IC50 value represents the concentration of the peptide that inhibits 50% of ACE activity under the assay conditions.

ACE [2] = molecular target: T1, ACE; conditions: read-out: IC50, ACE inhibition, cited from earlier work
[3] = attributed to multiple hydrophobic amino acids
ACE [4] = molecular target: T1, ACE; assay: Surface plasmon resonance (SPR) assay; assay type: binding
Method: The affinity interaction between TLRFALHGME and ACE was verified by SPR experiments. In brief, 5 ug ACE was fixed on a COOH sensor chip by capture-coupling. Afterwards, 50–800 μmol·L^−1 of TLRFALHGME were injected sequentially into the chamber in PBS running buffer. The SPR assay was performed at 25 °C on an OpenSPRTM (Nicoya Lifesciences, Waterloo, QC, Canada). The conditions for the analysis were set at a flow rate of 20 μL·min^−1, the binding time was 240 s, and the disassociation time was 480 s. Chips were regenerated using a regeneration buffer (0.25% SDS). A one-to-one diffusion-corrected model was fitted to the wavelength shifts corresponding to the series of TLRFALHGME concentrations. The kinetic constant analysis was performed using TraceDrawer 1.9.1 software (Ridgeview Instruments AB, Uppsala, Sweden) to determine the association constant (Ka) and dissociation constant (Kd). The affinity constant (KD) was calculated as the ratio kd/ka.

hypertensive rats = test system: hypertensive rats; design: method as in PMID 34783331; conditions: cited from earlier work
[5] = molecular target: T2, angiotensin-I-converting enzyme (UniProt P12822 34-1260)
T2 sequence (looked up): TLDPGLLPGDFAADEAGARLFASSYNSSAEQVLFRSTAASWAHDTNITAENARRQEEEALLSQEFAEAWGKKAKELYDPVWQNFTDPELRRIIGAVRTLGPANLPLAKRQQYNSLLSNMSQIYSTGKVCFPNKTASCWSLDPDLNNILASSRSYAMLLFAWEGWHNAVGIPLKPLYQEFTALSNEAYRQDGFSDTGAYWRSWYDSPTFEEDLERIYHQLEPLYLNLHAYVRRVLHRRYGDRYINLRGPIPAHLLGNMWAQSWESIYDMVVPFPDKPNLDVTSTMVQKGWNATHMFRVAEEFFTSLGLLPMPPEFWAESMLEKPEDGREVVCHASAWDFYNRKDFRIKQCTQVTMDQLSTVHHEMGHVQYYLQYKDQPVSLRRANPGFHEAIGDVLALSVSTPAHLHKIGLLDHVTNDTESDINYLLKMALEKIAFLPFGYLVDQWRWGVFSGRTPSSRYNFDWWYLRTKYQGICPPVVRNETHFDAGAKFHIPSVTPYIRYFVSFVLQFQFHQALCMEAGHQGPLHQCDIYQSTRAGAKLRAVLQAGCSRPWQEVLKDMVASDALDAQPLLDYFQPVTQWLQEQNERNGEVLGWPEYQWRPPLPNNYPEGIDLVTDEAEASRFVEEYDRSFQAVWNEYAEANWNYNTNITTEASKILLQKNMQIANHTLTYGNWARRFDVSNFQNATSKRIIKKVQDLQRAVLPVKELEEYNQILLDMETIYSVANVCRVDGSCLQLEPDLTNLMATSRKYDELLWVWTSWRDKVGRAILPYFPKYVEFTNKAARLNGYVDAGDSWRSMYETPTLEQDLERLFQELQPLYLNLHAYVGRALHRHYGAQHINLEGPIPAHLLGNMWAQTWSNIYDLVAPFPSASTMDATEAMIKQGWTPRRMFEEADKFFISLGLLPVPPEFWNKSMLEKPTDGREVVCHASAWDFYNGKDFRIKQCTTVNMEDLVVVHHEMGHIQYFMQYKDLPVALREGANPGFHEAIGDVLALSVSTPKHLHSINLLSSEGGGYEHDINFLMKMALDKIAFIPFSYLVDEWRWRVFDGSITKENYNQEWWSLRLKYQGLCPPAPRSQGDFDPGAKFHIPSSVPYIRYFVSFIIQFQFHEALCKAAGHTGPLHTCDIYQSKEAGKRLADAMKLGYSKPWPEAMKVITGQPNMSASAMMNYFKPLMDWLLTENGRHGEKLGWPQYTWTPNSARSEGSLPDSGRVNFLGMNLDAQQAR

[6] = molecular target: T2, angiotensin-I-converting enzyme; assay: cell-based or functional assay
[7] = from Volutharpa ampullacea perryi hydrolysate, Zn-SBA-15-immobilized ACE and HPLC

CC(C)C[C@H](NC(=O)[C@H](C)NC(=O)[C@H](C)NC(=O)[C@@H](N)CO)C(=O)O [SAAL] (H-SAAL-OH; N-terminus and C-terminus assumed)
inhibition at 1000 µg/mL (ACE [1]): > 50% | IC50 (ACE [1]): 883 µM

CC(C)C[C@H](NC(=O)[C@H](CC(C)C)NC(=O)[C@@H](NC(=O)[C@@H](N)[C@@H](C)O)C(C)C)C(=O)O [TVLL] (H-TVLL-OH; N-terminus and C-terminus assumed)
inhibition at 1000 µg/mL (ACE [1]): > 50% | IC50 (ACE [1]): 582 µM

CC(C)C[C@H](NC(=O)[C@@H](N)C(C)C)C(=O)NCC(=O)N[C@@H](C)C(=O)O [VLGA] (H-VLGA-OH; N-terminus and C-terminus assumed)
inhibition at 1000 µg/mL (ACE [1]): > 50% | IC50 (ACE [1]): 1370 µM

CC(C)C[C@H](NC(=O)[C@H](CC(C)C)NC(=O)[C@@H](NC(=O)[C@@H](N)Cc1ccc(O)cc1)C(C)C)C(=O)O [YVLL] (H-YVLL-OH; N-terminus and C-terminus assumed)
inhibition at 1000 µg/mL (ACE [1]): > 50% | IC50 (ACE [1]): 154 µM

IVTNWDDMEL
IC50 (ACE [2]; [7]): 2080 µM

RSTGALAL [RSTGALAL]
inhibition at 1000 µg/mL (ACE [1]): > 50% | IC50 (ACE [1]): 5840 µM

TFTGA [TFTGA]
inhibition at 1000 µg/mL (ACE [1]): > 50% | IC50 (ACE [1]): 694 µM

TLFGL [TLFGL]
inhibition at 1000 µg/mL (ACE [1]): > 50% | IC50 (ACE [1]): 57.5 µM | Solubility [3]: low solubility

TLRFALHGME [TLRFALHGME]
inhibition at 1000 µg/mL (ACE [1]): > 50% | IC50 (ACE [1]): 93.5 µM | koff (ACE [4]; 25 °C, 50–800 µmol·L^−1 peptide, read-out: Kd (dissociation rate constant)): 0.002 s⁻¹ | Kd (ACE [4]; KD, printed in Figure 7): 80.8 µM | Kd (ACE [4]; abstract, read-out: Kd (binding affinity to ACE)): 80.9 µM

VGPAGRPG
IC50 (ACE [2]; [7]): 4660 µM

VYP
IC50 (ACE [2]; from lizard fish protein hydrolysates, MA-IML): 108 µM

WGAP
Reduction of diastolic blood pressure (hypertensive rats): ≤ 28.56 ± 2.71 mmHg | Reduction of systolic blood pressure (hypertensive rats): up to 42.66 ± 2.87 mmHg

VLGA
ACE-inhibitory activity (hippuric acid formed from HHL, RP-HPLC), IC50 [5]: 1370 µM

TLFGL
ACE-inhibitory activity (hippuric acid formed from HHL, RP-HPLC), IC50 [6]: 57.5 µM

B1: TLRFALHGME (peptide)
peptide: TLRFALHGME
notes: source: Takifugu flavidus skin hydrolysate (alcalase, <1 kDa fraction); also synthetic peptide (Fmoc solid phase, Genscript)
ACE-inhibitory activity (hippuric acid formed from HHL, RP-HPLC), IC50 [6]: 93.5 µM

TVLL
ACE-inhibitory activity (hippuric acid formed from HHL, RP-HPLC), IC50 [5]: 582 µM

YVLL
ACE-inhibitory activity (hippuric acid formed from HHL, RP-HPLC), IC50 [5]: 154 µM

TFTGA
ACE-inhibitory activity (hippuric acid formed from HHL, RP-HPLC), IC50 [6]: 694 µM

SAAL
ACE-inhibitory activity (hippuric acid formed from HHL, RP-HPLC), IC50 [5]: 883 µM

RSTGALAL
ACE-inhibitory activity (hippuric acid formed from HHL, RP-HPLC), IC50 [6]: 5840 µM
